# Target: human PDE10A2 (Homo sapiens (Human), UniProt Q9Y233)
# Assay: PDE10 fluorescence polarization (IMAP FP) inhibition assay
# Assay type: biochemical
# Settings: read-out: PDE10a Ki
# Description: The activity of the compounds in accordance with the present invention as PDE10 inhibitors may be readily determined without undue experimentation using a fluorescence polarization (FP) methodology that is well known in the art (Huang, W., et al., J. Biomol Screen, 2002, 7: 215).
# In a typical experiment the PDE10 inhibitory activity of the compounds of the present invention was determined in accordance with the following experimental method. PDE10A2 was amplified from human fetal brain cDNA (Clontech, Mountain View, Calif.) using a forward primer corresponding to nucleotides 56-77 of human PDE10A2 (Accession No. AF127480, Genbank Identifier 4894716), containing a Kozak consensus sequence, and a reverse primer corresponding to nucleotides 2406-2413 of human PDE10A2 (Accession No. AF127480, Genbank Identifier 4894716). Amplification with Easy-A polymerase (Stratagene, La Jolla, Calif.) was 95° C. for 2 minutes followed by thirty three cycles of 95° C. for 40 seconds, 55° C. for 30 seconds, and 72° C. for 2 minutes 48 seconds. Final extension was 72° C. for 7 minutes. The PCR product was TA cloned into pcDNA3.2-TOPO (Invitrogen, Carlsbad, Calif.) according to standard protocol. AD293 cells with 70-80% confluency were transiently transfected with human PDE10A2/pcDNA3.2-TOPO using Lipofectamine 2000 according to manufacturer specifications (Invitrogen, Carlsbad, Calif.). Cells were harvested 48 hours post-transfection and lysed by sonication (setting 3, 10×5 sec pulses) in a buffer containing 20 mM HEPES, 1 mM EDTA and protease inhibitor cocktail (Roche). Lysate was collected by centrifugation at 75,000×g for 20 minutes. Supernatant containing the cytoplasmic fraction was used for evaluation of PDE10A2 activity. The fluorescence polarization assay for cyclic nucleotide phosphodiesterases was performed using an IMAP® FP kit supplied by Molecular Devices, Sunnyvale, Calif. (product # R8139). IMAP® technology has been applied previously to phosphodiesterase assays (Huang, W., et al., J. Biomol Screen, 2002, 7: 215). Assays were performed at room temperature in 384-well microtiter plates with an incubation volume of 20.2 μL. Solutions of test compounds were prepared in DMSO and serially diluted with DMSO to yield 8 μL of each of 10 solutions differing by 3-fold in concentration, at 32 serial dilutions per plate. […] 0% of inhibition is determined by using DMSO (1% final concentrations).
# A Labcyte Echo 555 (Labcyte, Sunnyvale, Calif.) is used to dispense 200 nL from each well of the titration plate to the 384 well assay plate. A solution of enzyme (1/1600 dilution from aliquots; sufficient to produce 20% substrate conversion) and a separate solution of FAM-labeled cAMP PDE from Molecular Devices (product # R7506), at a final concentration of 50 nM are made in the assay buffer (10 mM Tris HCl, pH 7.2, 10 mM MgCl2, 0.05% NaN3 0.01% Tween-20, and 1 mM DTT). The enzyme and the substrate are then added to the assay plates in two consecutive additions of 10 μL, and then shaken to mix. The reaction is allowed to proceed at room temperature for 30 minutes. […] The enzymatic reaction is stopped by addition of 60 μL of the binding solution to each well of the assay plates and the plates are sealed and shaken for 10 seconds. The plate was incubated at room temperature for at least one hour prior to determining the fluorescence polarization (FP). The parallel and perpendicular fluorescence of each well of the plate was measured using a Perkin Elmer EnVision™ plate reader (Waltham, Mass.).
# Fluorescence polarization (mP) was calculated from the parallel (S) and perpendicular (P) fluorescence of each sample well and the analogous values for the median control well, containing only substrate (So and Po), using the following equation: Polarization (mP)=1000*(S/So−P/Po)/(S/So+P/Po).
# Dose-inhibition profiles for each compound were characterized by fitting the mP data to a four-parameter equation given below.
# Sequence of human PDE10A2 (Q9Y233 267-1055): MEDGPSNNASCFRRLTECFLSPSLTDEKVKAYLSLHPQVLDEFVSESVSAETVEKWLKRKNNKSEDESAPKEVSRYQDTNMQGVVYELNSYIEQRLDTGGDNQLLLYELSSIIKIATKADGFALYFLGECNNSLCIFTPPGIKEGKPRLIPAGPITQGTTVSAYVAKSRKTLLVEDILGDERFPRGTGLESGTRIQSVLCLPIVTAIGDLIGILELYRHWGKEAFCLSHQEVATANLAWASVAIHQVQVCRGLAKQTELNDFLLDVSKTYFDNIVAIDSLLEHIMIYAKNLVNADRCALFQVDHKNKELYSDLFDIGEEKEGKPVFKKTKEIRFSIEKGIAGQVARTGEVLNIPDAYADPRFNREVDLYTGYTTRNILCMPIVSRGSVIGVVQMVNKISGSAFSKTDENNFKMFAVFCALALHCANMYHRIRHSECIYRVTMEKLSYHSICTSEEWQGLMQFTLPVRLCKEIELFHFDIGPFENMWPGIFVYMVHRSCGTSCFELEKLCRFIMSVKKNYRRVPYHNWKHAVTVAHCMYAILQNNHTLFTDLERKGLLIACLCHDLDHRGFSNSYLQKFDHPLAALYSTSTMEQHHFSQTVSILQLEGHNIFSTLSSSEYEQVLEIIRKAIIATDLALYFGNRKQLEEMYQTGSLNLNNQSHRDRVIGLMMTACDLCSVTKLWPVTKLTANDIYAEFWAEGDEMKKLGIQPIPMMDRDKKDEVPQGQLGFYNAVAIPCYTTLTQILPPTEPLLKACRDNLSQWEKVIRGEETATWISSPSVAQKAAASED
row,Structure (SMILES),Ki [nM]
1,"Cc1nc(N2CC(c3nc4ccccc4n3C)C2)cc(-n2nc(C)nc2C(O)C(F)(F)F)n1 (racemic) [Example 3, 2,2,2-trifluoro-1-(3-methyl-1-(2-methyl-6-(3-(1-methyl-1H-benzo[d]imidazol-2-yl)azetidin-1-yl)pyrimidin-4-yl)-1H-1,2,4-triazol-5-yl)ethanol]",0.11
2,"Cc1nc(N2CC(c3nc4ccccc4n3C)C2)cc(-n2nc(C)nc2C(O)C(F)(F)F)n1 (single isomer, unassigned) [Example 3a, 2,2,2-trifluoro-1-(3-methyl-1-(2-methyl-6-(3-(1-methyl-1H-benzo[d]imidazol-2-yl)azetidin-1-yl)pyrimidin-4-yl)-1H-1,2,4-triazol-5-yl)ethanol]",1
3,"CCC(O)c1nc(C)nn1-c1cc(N2CC(c3nc4ccccc4n3C)C2)nc(C)n1 (single isomer, unassigned) [Example 4a, 1-(3-methyl-1-(2-methyl-6-(3-(1-methyl-1H-benzo[d]imidazol-2-yl)azetidin-1-yl)pyrimidin-4-yl)-1H-1,2,4-triazol-5-yl)propan-1-ol]",1.8
4,"Cc1nc(N2CC(c3nc4ccccc4n3C)C2)cc(-n2nc(C)nc2C(O)C(C)C)n1 (single isomer, unassigned) [Example 5a, 2-methyl-1-(3-methyl-1-(2-methyl-6-(3-(1-methyl-1H-benzo[d]imidazol-2-yl)azetidin-1-yl)pyrimidin-4-yl)-1H-1,2,4-triazol-5-yl)propan-1-ol]",0.34
5,"Cc1nc(N2CC(c3nc4ccccc4n3C)C2)cc(-n2nc(C)nc2C(O)C(C)C)n1 (single isomer, unassigned) [Example 5b, 2-methyl-1-(3-methyl-1-(2-methyl-6-(3-(1-methyl-1H-benzo[d]imidazol-2-yl)azetidin-1-yl)pyrimidin-4-yl)-1H-1,2,4-triazol-5-yl)propan-1-ol]",0.77
6,"Cc1nc(N2CC(c3nc4ccccc4n3C)C2)cc(-n2nc(C)nc2C(O)C2CC2)n1 (single isomer, unassigned) [Example 6b, cyclopropyl(3-methyl-1-(2-methyl-6-(3-(1-methyl-1H-benzo[d]imidazol-2-yl)azetidin-1-yl)pyrimidin-4-yl)-1H-1,2,4-triazol-5-yl)methanol]",2.6
7,"Cc1nc(N2CC(c3nc4ccccc4n3C)C2)cc(-n2nc(C)nc2C(O)CC(F)(F)F)n1 (single isomer, unassigned) [Example 7a, 3,3,3-trifluoro-1-(3-methyl-1-(2-methyl-6-(3-(1-methyl-1H-benzo[d]imidazol-2-yl)azetidin-1-yl)pyrimidin-4-yl)-1H-1,2,4-triazol-5-yl)propan-1-ol]",4.5
8,"Cc1nc(N2CC(c3nc4ccccc4n3C)C2)cc(-n2nc(C)nc2C(O)CC(F)(F)F)n1 (single isomer, unassigned) [Example 7b, 3,3,3-trifluoro-1-(3-methyl-1-(2-methyl-6-(3-(1-methyl-1H-benzo[d]imidazol-2-yl)azetidin-1-yl)pyrimidin-4-yl)-1H-1,2,4-triazol-5-yl)propan-1-ol]",2.5
9,"Cc1nc(C(C)O)n(-c2cc(N3CC(c4nc5ccccc5n4C)C3)nc(C(F)(F)F)n2)n1 (single isomer, unassigned) [Example 8a, 1-(3-methyl-1-(6-(3-(1-methyl-1H-benzo[d]imidazol-2-yl)azetidin-1-yl)-2-(trifluoromethyl)pyrimidin-4-yl)-1H-1,2,4-triazol-5-yl)ethanol]",0.53
10,"Cc1nc(C(C)O)n(-c2cc(N3CC(c4nc5ccccc5n4C)C3)nc(C(F)(F)F)n2)n1 (single isomer, unassigned) [Example 8b, 1-(3-methyl-1-(6-(3-(1-methyl-1H-benzo[d]imidazol-2-yl)azetidin-1-yl)-2-(trifluoromethyl)pyrimidin-4-yl)-1H-1,2,4-triazol-5-yl)ethanol]",1
11,"Cc1nc(C(C)O)n(-c2cc(N3CC(c4nc5ccccc5n4C)C3)nc(C3CC3)n2)n1 (single isomer, unassigned) [Example 10a, 1-(1-(2-cyclopropyl-6-(3-(1-methyl-1H-benzo[d]imidazol-2-yl)azetidin-1-yl)pyrimidin-4-yl)-3-methyl-1H-1,2,4-triazol-5-yl)ethanol]",0.13
12,"Cc1nc(C(C)O)n(-c2cc(N3CC(c4nc5ccccc5n4C)C3)nc(C3CC3)n2)n1 (single isomer, unassigned) [Example 10b, 1-(1-(2-cyclopropyl-6-(3-(1-methyl-1H-benzo[d]imidazol-2-yl)azetidin-1-yl)pyrimidin-4-yl)-3-methyl-1H-1,2,4-triazol-5-yl)ethanol]",0.39
13,"Cc1nc(N2CC(c3nc4ccccc4n3C)C2)cc(-n2nc(C)nc2C(O)C(F)F)n1 (single isomer, unassigned) [Example 11a, 2,2-difluoro-1-(3-methyl-1-(2-methyl-6-(3-(1-methyl-1H-benzo[d]imidazol-2-yl)azetidin-1-yl)pyrimidin-4-yl)-1H-1,2,4-triazol-5-yl)ethanol]",0.65
14,"Cc1nc(N2CC(c3nc4ccccc4n3C)C2)cc(-n2nc(C)nc2C(O)C(F)F)n1 (single isomer, unassigned) [Example 11b, 2,2-difluoro-1-(3-methyl-1-(2-methyl-6-(3-(1-methyl-1H-benzo[d]imidazol-2-yl)azetidin-1-yl)pyrimidin-4-yl)-1H-1,2,4-triazol-5-yl)ethanol]",3
15,"Cc1nc(C2C[C@H]2c2nc3ccccc3n2C)cc(-n2nc(C)nc2C(O)C(F)(F)F)n1 (single isomer, unassigned) [Example 20a]",0.58
16,"Cc1nc(C2C[C@H]2c2nc3ccccc3n2C)cc(-n2nc(C)nc2C(O)C(F)(F)F)n1 (single isomer, unassigned) [Example 20b]",0.92
17,"CCC(O)c1nc(C)nn1-c1cc(N2CC(c3nc4ccccc4n3C)C2)nc(C)n1 (stereo not shown) [Example 4, 1-(3-methyl-1-(2-methyl-6-(3-(1-methyl-1H-benzo[d]imidazol-2-yl)azetidin-1-yl)pyrimidin-4-yl)-1H-1,2,4-triazol-5-yl)propan-1-ol]",0.51
18,"Cc1nc(N2CC(c3nc4ccccc4n3C)C2)cc(-n2nc(C)nc2C(O)C(C)C)n1 (stereo not shown) [Example 5, 2-methyl-1-(3-methyl-1-(2-methyl-6-(3-(1-methyl-1H-benzo[d]imidazol-2-yl)azetidin-1-yl)pyrimidin-4-yl)-1H-1,2,4-triazol-5-yl)propan-1-ol]",0.41
19,"Cc1nc(N2CC(c3nc4ccccc4n3C)C2)cc(-n2nc(C)nc2C(O)C2CC2)n1 (stereo not shown) [Example 6, cyclopropyl(3-methyl-1-(2-methyl-6-(3-(1-methyl-1H-benzo[d]imidazol-2-yl)azetidin-1-yl)pyrimidin-4-yl)-1H-1,2,4-triazol-5-yl)methanol]",0.36
20,"Cc1nc(N2CC(c3nc4ccccc4n3C)C2)cc(-n2nc(C)nc2C(O)CC(F)(F)F)n1 (stereo not shown) [Example 7, 3,3,3-trifluoro-1-(3-methyl-1-(2-methyl-6-(3-(1-methyl-1H-benzo[d]imidazol-2-yl)azetidin-1-yl)pyrimidin-4-yl)-1H-1,2,4-triazol-5-yl)propan-1-ol]",3.2
21,"Cc1nc(C(C)O)n(-c2cc(N3CC(c4nc5ccccc5n4C)C3)nc(C(F)(F)F)n2)n1 (stereo not shown) [Example 8, 1-(3-methyl-1-(6-(3-(1-methyl-1H-benzo[d]imidazol-2-yl)azetidin-1-yl)-2-(trifluoromethyl)pyrimidin-4-yl)-1H-1,2,4-triazol-5-yl)ethanol]",0.83
22,"COc1nc(N2CC(c3nc4ccccc4n3C)C2)cc(-n2nc(C)nc2C(C)O)n1 (stereo not shown) [Example 9, 1-(1-(2-methoxy-6-(3-(1-methyl-1H-benzo[d]imidazol-2-yl)azetidin-1-yl)pyrimidin-4-yl)-3-methyl-1H-1,2,4-triazol-5-yl)ethanol]",1.2
